These results are taken from patent US4492698A, “Diphenylbutyl-1-acylpiperazines” (priority 1980, dated 1985).

For test [1], the system named is male NMRI mice. In words: isolation-induced aggressive behaviour. It counts as in vivo. Particulars: Mus musculus, sc, read-out: ED50 (dose inhibiting aggressive behaviour among 50 percent of the pairs). The source says: Male mice subjected to prolonged isolation develop aggressive behaviour against each other when paired (Yen, C. Y. et al., Arch. Int. Pharmacodyn. 123, 179, (1959); Valzelli, L., Adv. Pharmacol. 5, 79 (1967)). […] The clinical correlation of this test indicates tranquillizing and anxiolytic activities as well as antiaggressive properties as such (Duncan, R. L. et al., J. Med. Chem. 13, 1 (1970)).
This type of aggression is interesting because it is known that this kind of emotional behaviour might be located in limbic structures in the brain (MacLean, P. D., Psychosom. Med. 11, 338 (1949)).
Every week male NMRI mice, weighing 20-22 g, were isolated in Makrolon cages for three weeks with diet and water ad libitum. A piece of cardboard was placed between the cages to prevent visual contact.
To test aggressiveness the mice were paired in a neutral area, a beaker (14 cm high and diameter 14 cm). A pair is considered aggressive if both the animals show clear signs of fighting within 5 min. This fighting is characterized by biting and vocalization. As soon as fighting is seen, the mice are separated and brought to their home cage. […] Animals showing no aggression are discarded. […] The test substance is administered s.c. (0.2-0.4 ml/20 g). The mice are paired 0.5 h after the injection for trials of 5 min. duration.
The ED50 -value (mg/kg) reported is the dose inhibiting aggressive behaviour among 50 percent of the pairs 0.5 hour after drug administration.

Another test deals with mice (NMRI). In words: writhing test (acetic acid), analgetic properties. The test is classed as in vivo. Particulars: Mus musculus, sc, 20 min before acetic acid i.p.; female mice; read-out: ED50 (dose blocking the writhing behaviour in 50% of the animals). The protocol: The writhing test is a frequently used test of analgetic properties (Witkin, L. B. et al., J. Pharmacol. Exp. Ther. 133, 400 (1961)). If acetic acid (0.5%, 15 ml/kg) is injected intraperitoneally in mice (NMRI) they will without exception develop a writhing behaviour characterized by stretching their hind legs. The drugs to be tested were administered subcutaneously to 6 female mice at each dose 20 min. before the injection of the acetic acid. After 10 min. The behaviour of the mice was studied in 5 min. The ED50 value is the dose blocking the writhing behaviour in 50% of the animals during the 5 min. study period.

Test [2] has as its system male hooded Long-Evans rats. The test is described as follows: spontaneous mouse-killing (muricide) by rats. It counts as in vivo, rat (hooded Long-Evans). The settings on record: for ED50: Rattus norvegicus, sc. The source says: For the purpose of detecting new psychotropic substances with antiaggressive properties, pharmacologist have used several different models. One model used, the mouse-killing (muricide) by rats (Vogel, J. R. in Industrial Pharmacology, Vol. 2, Antidepressants, Stuart, F. and Lal, H., Ed., Futura Publishing Company, 1975, p. 99), is based on an existing interspecies aggression (Karli, P., Behaviour 10, 81 (1956)). This form of aggressive behaviour which is considered to be of predatory nature, is physiologically and topographically different from other forms of aggression (O'Boyle, M., Psychol. Bull. 81, 261 (1974)). Mousekilling is a spontaneous behaviour in some rat strains e.g. male hooded Long-Evans rats.
Male hooded Long-Evans rats placed in individual cages were used. By testing a number of rats, a colony of rats was obtained that killed a mouse whenever introduced into the rats' cage, by biting the mouse through the cervical spinal cord.
Each rat was tested for mouse-killing behaviour (killing a mouse within 5 minutes) prior to each experiment, thus serving as its own positive control. For each dose level 6 positive rats were selected and the test substance was administered by subcutaneous injection. Doses were selected to form a dose-response curve and the […] (ED50, mg/kg) was calculated by means of linear regression. The rats were tested at 1, and 2 hours after being injected subcutaneously. [drawing 9]

Test [3] concerns male NMRI mice. The settings on record: general statement on the test; cited from earlier work.
[4] abbreviates: 1 hr after injection, read-out: ED50, spontaneous mouse-killing, 1 hr.
The mark [5] stands for this setting: read-out: ED50, spontaneous mouse-killing, s.c., 2 hr after injection.
Where [6] appears, read: 0.5 hour after drug administration.

The structures appear in SMILES notation. Where a name gives a salt, the structure may show the parent alone. Read-outs that look alike come from different tables or passages of the source.

The ED50 is the dose that gives a 50% effect, or the effect in half of the subjects. As for `CN(C)CCCN1c2ccccc2Sc2ccc(Cl)cc21` [Chlorpromazine], in the test with male NMRI mice [1] (0.5 h), the ED50 worked out at 1.4 mg/kg.

Consider `CC(C)C(=O)N1CCN(CCCC(c2ccc(F)cc2)c2ccc(F)cc2)CC1` [Compound 2], for which the ED50 with mice (NMRI) was found to be 1.1 mg/kg.

On to `CN(C)CCC=C1c2ccccc2CCc2ccccc21` [Amitriptyline], for which the ED50 was over 10 mg/kg in test [2] (setting [4]), 6.4 mg/kg in test [2] (setting [5]) and 5 mg/kg in the test with male NMRI mice [1] (setting [6]).

Regarding `CN1C(=O)CN=C(c2ccccc2)c2cc(Cl)ccc21` [Diazepam], in the test with male NMRI mice [3], the “activity on isolation-induced aggressive behaviour” value was “active”.

Regarding `CCC(=O)N1CC(C)N(CCC(c2ccccc2)c2ccccc2)CC1C` (stereo not shown) [Compound A1], in the test with mice (NMRI), the ED50 came to 4.2 mg/kg.

As to `CC(=O)N1CCN(CCCC(c2ccc(F)cc2)c2ccc(F)cc2)CC1` [B, 1-acetyl-4-[4,4-(di-fluorophenyl)butyl]piperazine], the ED50 in test [2] (setting [4]) was over 10 mg/kg; in test [2] (setting [5]), over 10 mg/kg; with male NMRI mice [1] (setting [6]), 10 mg/kg. Moreover, the “pharmacological properties compared with compounds I” value in test [2] (versus compounds I of the invention, in the tests of the application) was “inferior to the compounds I of the present invention”.

As for `CCC(=O)N1CCN(CCCC(c2ccc(F)cc2)c2ccc(F)cc2)CC1` [Compound 1, 1-Ethylcarbonyl-4-[4,4-(di-p-fluorophenyl)butyl]-piperazine hydrochloride], the ED50 in test [2] (setting [4]) is 1 mg/kg; in test [2] (setting [5]), 1.8 mg/kg; with mice (NMRI), 0.5 mg/kg; with male NMRI mice [1] (setting [6]), 2.8 mg/kg.

In the case of `O=C(C1CC1)N1CCN(CCCC(c2ccc(F)cc2)c2ccc(F)cc2)CC1` [Compound 3], the ED50 was found to be 2.6 mg/kg in test [2] (setting [4]), 3.7 mg/kg in test [2] (setting [5]), 0.8 mg/kg in the test on mice (NMRI) and 1.4 mg/kg in the test with male NMRI mice [1] (setting [6]).
